From patent US11813306B2, “Cyclic tetramer compounds as proprotein convertase subtilisin/kexin type 9 (PCSK9) inhibitors for the treatment of metabolic disorders” (NOVARTIS AG, priority 2018, dated 2023)

Molecular target: human PCSK9 (Homo sapiens, UniProt Q8NBP7)
Test: PCSK9 ligand binding assay (TR-FRET): interference with binding of human PCSK9 to human LDLR
Conditions: for IC50: Human PCSK9 Alexa Fluor 647 / Human LDLR extracellular domain-Europium Kryptate; for Max % inhibition: efficacy (Amax), 100% = 1 uM unlabeled human PCSK9, 0% = DMSO
Method: Example 10: PCSK9 Ligand Binding Assay
The PCSK9 binding of the compounds of the disclosure were measured using a time resolved fluorescence resonance energy transfer (TR-FRET) assay. This time resolved fluorescence resonance energy transfer (TR-FRET) assay measures the ability of a compound of the present disclosure to interfere with the binding of human PCSK9 to human LDLR, providing measures of both potency (IC50) and efficacy (Amax).
Human PCSK9 Alexa Fluor 647
Human LDLR extracellular domain-Europium Kryptate
Proxi plate-low volume assay plate (PerkinElmer #6008280)
Greiner V-bottom (Greiner BioOne #781280)
Assay Buffer • 20 mM HEPES, pH 7.5 • 150 mM NaCl • 1 mM CaCl2 • 0.01% v/v Tween20 • 0.01% w/v BSA
A master compound plate was prepared in a Greiner V bottom plate by diluting compounds of the disclosure in dimethylsulfoxide to the correct concentration for the desired top concentration based on the desired final concentration: for a 30 uM final concentration the master plate concentration is 1.5 mM (68 uL DMSO+12 uL 10 mM of a compound of the disclosure), for a 10 uM final concentration the master plate concentration is 0.5 mM (76 uL DMSO+4 uL 10 mM of a compound of the disclosure), for a 3 uM final concentration the master plate concentration is 150 uM (69 uL DMSO+1 uL 10 mM of a compound of the disclosure). These solutions were pipetted into columns 1 and 11 of the compound plate. Threefold serial dilutions were generated in columns 2-10 and 12-20 of the compound plate by transferring 10 uL into 20 uL of DMSO. Columns 21 and 22 of the compound plate were negative controls containing DMSO alone.
An intermediate plate was generated in a Greiner V bottom plate by transferring 8 uL from each well of the master plate into a corresponding well containing 92 uL of assay buffer and mixing thoroughly.
A Proxi plate-low volume assay plate was used for the assay. To all wells of the plate was added 10 uL of 16 nM Human PCSK9 Alexa Fluor 647, followed by 5 uL from the intermediate plate. For the positive control wells in columns 23 and 24 of the plate, 5 uL of unlabeled human PCSK9 was added at 4 uM in assay buffer containing 8% DMSO. Following a 30 minute incubation, 5 uL of 4 nM Human LDLR extracellular domain-Europium Kryptate was added and the mixture was incubated for an additional 2 hours.
The TR-FRET signal was measured on an EnVision or PheraStar instrument with a 60 ms delay, 330 nm excitation and 665 nm emission (FRET), and 330 nm excitation and 615 nm (Europium). The FRET ratio (FRET/Europium) was used for calculations.
No inhibition (0%) was observed from the wells containing DMSO (Control) in columns 21 and 22 of the compound plate. Full inhibition (100%) was observed from the wells containing 1 uM human PCSK9 (Control) in columns 23 and 24 of the plate. Data is expressed as percent inhibition: (value—0%)/(100%-0%).

Sequence of human PCSK9 (Q8NBP7 153-692): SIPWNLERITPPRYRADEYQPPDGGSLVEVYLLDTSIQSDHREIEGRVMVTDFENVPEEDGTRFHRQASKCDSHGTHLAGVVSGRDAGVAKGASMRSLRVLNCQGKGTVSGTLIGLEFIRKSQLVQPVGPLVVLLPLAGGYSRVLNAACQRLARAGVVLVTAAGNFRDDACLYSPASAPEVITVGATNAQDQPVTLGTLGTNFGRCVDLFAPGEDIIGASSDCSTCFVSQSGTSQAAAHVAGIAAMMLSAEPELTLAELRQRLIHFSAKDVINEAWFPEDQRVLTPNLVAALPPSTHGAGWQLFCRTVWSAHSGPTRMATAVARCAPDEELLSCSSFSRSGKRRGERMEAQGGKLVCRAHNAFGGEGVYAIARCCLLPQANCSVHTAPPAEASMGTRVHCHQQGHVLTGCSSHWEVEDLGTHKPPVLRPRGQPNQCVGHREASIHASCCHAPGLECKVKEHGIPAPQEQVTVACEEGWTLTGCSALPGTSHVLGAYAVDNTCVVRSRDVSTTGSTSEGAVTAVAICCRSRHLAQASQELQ
Sequence of human PCSK9 (Q8NBP7 31-152 partner limits assumed): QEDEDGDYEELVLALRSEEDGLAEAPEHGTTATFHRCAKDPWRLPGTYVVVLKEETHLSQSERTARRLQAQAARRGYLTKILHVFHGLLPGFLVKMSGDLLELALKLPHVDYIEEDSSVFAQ

IC50 [nM]	Max % inhibition [%]	SMILES
0.956	119.9	COC[C@@H]1NC(=O)[C@H](C)N(Cc2ccc(Cl)cc2Oc2ccc(-c3cnc(CNC(C)(C)C)n3C)cc2)C(=O)C[C@@H](CC(F)(F)F)C(=O)N2CCC[C@@](Cc3ccc(Cl)cc3)(C2)NC1=O [Compound 6, (3S, 7S, 10S, 13R)-6-(2-(4-(2-((tert-butylamino)methyl)-1-methyl-1H-imidazol-5-yl)phenoxy)-4-chlorobenzyl)-13-(4-chlorobenzyl)-10-(methoxymethyl)-7-methyl-3-(2,2,2-trifluoroethyl)-1,6,9,12-tetraazabicyclo[11.3.1]heptadecane-2,5,8,11-tetraone]
1.1	98.3	C[C@H]1C(=O)N[C@@H](CO)C(=O)N[C@@]2(Cc3ccc(Cl)cc3)CCCN(C2)C(=O)[C@H]([C@H]2CCc3ccccc32)CC(=O)N1Cc1ccc(Cl)cc1Oc1ccc(-c2cnc(CN(C)C)n2C)cn1 [Compound 31, (3S, 7S, 10S, 13R)-6-(4-chloro-2-((5-(2-((dimethylamino)methyl)-1-methyl-1H-imidazol-5-yl)pyridin-2-yl)oxy)benzyl)-13-(4-chlorobenzyl)-3-((R)-2,3-dihydro-1H-inden-1-yl)-10-(hydroxymethyl)-7-methyl-1,6,9,12-tetraazabicyclo[11.3.1]heptadecane-2,5,8,11-tetraone]
1.18	105.2	COC[C@@H]1NC(=O)[C@H](C)N(Cc2ccc(Cl)cc2Oc2ccc(-c3cnc(CN(C)C)n3C)cc2)C(=O)C[C@@H](Cc2cccc(=O)n2C)C(=O)N2CCC[C@@](Cc3ccc(Cl)cc3)(C2)NC1=O [Compound 44]
0.71	104.6	C[C@H]1C(=O)N[C@@H](CO)C(=O)N[C@@]2(Cc3ccc(Cl)cc3)CCCN(C2)C(=O)[C@H](CC2CC2)CC(=O)N1Cc1c(F)cc(Cl)cc1Oc1ccc(-c2cnc(CNC(C)(C)C)n2C)cc1 [Compound 154, (3R, 7S, 10S, 13R)-6-(2-(4-(2-((tert-butylamino)methyl)-1-methyl-1H-imidazol-5-yl)phenoxy)-4-chloro-6-fluorobenzyl)-13-(4-chlorobenzyl)-3-(cyclopropylmethyl)-10-(hydroxymethyl)-7-methyl-1,6,9,12-tetraazabicyclo[11.3.1]heptadecane-2,5,8,11-tetraone]
76.3	86.3	COC[C@@H]1NC(=O)[C@@H](C)N(Cc2c(F)cc(Cl)cc2Oc2ccc(-c3cnc(CN(C)C)n3C)nc2)C(=O)C[C@@H](CC(F)(F)F)C(=O)N2CCC[C@@](Cc3ccc(Cl)cc3)(C2)N(C)C1=O [Compound 176, (3S, 7R, 10S, 13R)-6-(4-chloro-2-((6-(2-((dimethylamino)methyl)-1-methyl-1H-imidazol-5-yl)pyridin-3-yl)oxy)-6-fluorobenzyl)-13-(4-chlorobenzyl)-10-(methoxymethyl)-7,12-dimethyl-3-(2,2,2-trifluoroethyl)-1,6,9,12-tetraazabicyclo[11.3.1]heptadecane-2,5,8,11-tetraone]
1.3	114.4	C[C@H]1C(=O)N[C@@H](CO)C(=O)N[C@@]2(Cc3ccc(Cl)cc3)CCCN(C2)C(=O)[C@H](CC2CC2)CC(=O)N1Cc1ccc(Cl)cc1Oc1ccc(-c2cnc(CN(C)C(C)(C)C)n2C)cc1 [Compound 162, (3R, 7S, 10S, 13R)-6-(2-(4-(2-((tert-butyl(methyl)amino)methyl)-1-methyl-1H-imidazol-5-yl)phenoxy)-4-chlorobenzyl)-13-(4-chlorobenzyl)-3-(cyclopropylmethyl)-10-(hydroxymethyl)-7-methyl-1,6,9,12-tetraazabicyclo[11.3.1]heptadecane-2,5,8,11-tetraone]
102	96.8	CC[C@@H]1CC(=O)N(Cc2ccc(Cl)cc2Oc2ccc(-c3cnc(CN4CCCC4)n3C)cc2)[C@@H](C)C(=O)N[C@@H](CO)C(=O)N(C)[C@H](Cc2ccc(Cl)cc2)CNC1=O.Cl [Compound 124, (2S, 5S, 8R, 12R)-1-(4-chloro-2-(4-(1-methyl-2-(pyrrolidin-1-ylmethyl)-1H-imidazol-5-yl)phenoxy)benzyl)-8-(4-chlorobenzyl)-12-ethyl-5-(hydroxymethyl)-2,7-dimethyl-1,4,7,10-tetraazacyclotetradecane-3,6,11,14-tetraone]
0.781	70.1	C[C@H]1C(=O)N[C@@H](CO)C(=O)N[C@@]2(Cc3ccc(Cl)cc3)CCCN(C2)C(=O)[C@H]([C@@H]2CCc3ccccc32)CC(=O)N1Cc1ccc(Cl)cc1Oc1ccc(-c2cnc(C3CN(C)C3)n2C)cc1 [Compound 69, (3S, 7S, 10S, 13R)-6-(4-chloro-2-(4-(1-methyl-2-(1-methylazetidin-3-yl)-1H-imidazol-5-yl)phenoxy)benzyl)-13-(4-chlorobenzyl)-3-((S)-2,3-dihydro-1H-inden-1-yl)-10-(hydroxymethyl)-7-methyl-1,6,9,12-tetraazabicyclo[11.3.1]heptadecane-2,5,8,11-tetraone]
0.58	111.7	C[C@H]1C(=O)N[C@@H](CO)C(=O)N[C@@]2(Cc3ccc(Cl)cc3)CCCN(C2)C(=O)[C@H](Cc2ccccc2)CC(=O)N1Cc1c(F)cc(Cl)cc1Oc1ccc(-c2cnc(CN(C)C)n2C)cc1F [Compound 87, (3R, 7S, 10S, 13R)-3-benzyl-6-(4-chloro-2-(4-(2-((dimethylamino)methyl)-1-methyl-1H-imidazol-5-yl)-2-fluorophenoxy)-6-fluorobenzyl)-13-(4-chlorobenzyl)-10-(hydroxymethyl)-7-methyl-1,6,9,12-tetraazabicyclo[11.3.1]heptadecane-2,5,8,11-tetraone]
1.16	99.7	C[C@H](O)[C@@H]1NC(=O)[C@H](C)N(Cc2ccc(Cl)cc2Oc2ccc(-c3cnc(CN(C)C)n3C)cc2)C(=O)C[C@@H](CC(F)(F)F)C(=O)N2CCC[C@@](Cc3ccc(Cl)cc3)(C2)NC1=O [Compound 64, (3S,7S,10S,13R)-6-(4-chloro-2-(4-(2-((dimethylamino)methyl)-1-methyl-1H-imidazol-5-yl)phenoxy)benzyl)-13-(4-chlorobenzyl)-10-((S)-1-hydroxyethyl)-7-methyl-3-(2,2,2-trifluoroethyl)-1,6,9,12-tetraazabicyclo[11.3.1]heptadecane-2,5,8,11-tetraone]
1.36	95.0	C[C@H]1C(=O)N[C@@H](CO)C(=O)N[C@@]2(Cc3ccc(Cl)cc3)CCCN(C2)C(=O)[C@H]([C@@H]2CCc3ccccc32)CC(=O)N1Cc1cc(F)ccc1Oc1ccc(-c2cnc(CN(C)C)n2C)cc1 [Compound 73]
0.438	100.8	C[C@H]1C(=O)N[C@@H](CO)C(=O)N[C@@]2(Cc3ccc(Cl)cc3)CCCN(C2)C(=O)[C@H](Cc2ccccc2)CC(=O)N1Cc1ccc(Cl)c(F)c1Oc1ccc(-c2cnc(CN(C)C)n2C)cc1 [Compound 25, (3R, 7S, 10S, 13R)-3-benzyl-6-(4-chloro-2-(4-(2-((dimethylamino)methyl)-1-methyl-1H-imidazol-5-yl)phenoxy)-3-fluorobenzyl)-13-(4-chlorobenzyl)-10-(hydroxymethyl)-7-methyl-1,6,9,12-tetraazabicyclo[11.3.1]heptadecane-2,5,8,11-tetraone]
